The test system of the test is MV-4-11 cells. As to the kind of experiment: Gene expression microarray analysis (Affymetrix PrimeView) and GSEA. It is filed as cell-based, human. More on the design: RFU PODN (11730768_x_at) / Fold change /veh PODN (11730768_x_at) / RFU LINC00158 (11744669_a_at) / Fold change /veh LINC00158 (11744669_a_at) / RFU DUSP10 (11751237_a_at) / Fold change /veh DUSP10 (11751237_a_at) / RFU ID3 (11757404_x_at) / Fold change /veh ID3 (11757404_x_at) / RFU PLEKHG5 (11737974_s_at) / Fold change /veh PLEKHG5 (11737974_s_at) / RFU LRRC4B (11730491_at) / Fold change /veh LRRC4B (11730491_at) / RFU GIMAP4 (11747438_a_at) / Fold change /veh GIMAP4 (11747438_a_at) / RFU KRT8 (11758183_x_at) / Fold change /veh KRT8 (11758183_x_at) / RFU CNN1 (11734310_a_at) / Fold change /veh CNN1 (11734310_a_at) / RFU VPS37D (11726825_at) / Fold change /veh VPS37D (11726825_at) / RFU C10orf10 (11716522_x_at) / Fold change /veh C10orf10 (11716522_x_at) / RFU KIR2DL2 /// KIR2DL4 /// KIR2DL5A /// KIR2DL5B /// KIR2DS1 /// KIR2DS2 /// KIR2DS3 /// KIR2DS4 /// KIR3DL3 /// KIR3DL3 /// KIR3DS1 (11738374_at) / Fold change /veh KIR2DL2 /// KIR2DL4 /// KIR2DL5A /// KIR2DL5B /// KIR2DS1 /// KIR2DS2 /// KIR2DS3 /// KIR2DS4 /// KIR3DL3 /// KIR3DL3 /// KIR3DS1 (11738374_at) / RFU C1QL1 (11718748_at) / Fold change /veh C1QL1 (11718748_at) / RFU TMPRSS4 (11747572_a_at) / Fold change /veh TMPRSS4 (11747572_a_at) / RFU HAMP (11756126_x_at) / Fold change /veh HAMP (11756126_x_at) / RFU RNFT2 (11725882_a_at) / Fold change /veh RNFT2 (11725882_a_at) / RFU NR4A2 (11747474_a_at) / Fold change /veh NR4A2 (11747474_a_at) / RFU ABCC12 (11746883_a_at) / Fold change /veh ABCC12 (11746883_a_at) / RFU TMEM136 (11760407_x_at) / Fold change /veh TMEM136 (11760407_x_at) / RFU CLDN22 /// WWC2 (11732394_at) / Fold change /veh CLDN22 /// WWC2 (11732394_at) / RFU HLA-DPB1 (11760878_x_at) / Fold change /veh HLA-DPB1 (11760878_x_at) / RFU SPINT1 (11716480_a_at) / Fold change /veh SPINT1 (11716480_a_at) / RFU GAP43 (11754022_s_at) / Fold change /veh GAP43 (11754022_s_at) / RFU A4GNT (11735810_at) / Fold change /veh A4GNT (11735810_at) / RFU PRB3 (11715151_x_at) / Fold change /veh PRB3 (11715151_x_at) / RFU TUBB4B (11761932_at) / Fold change /veh TUBB4B (11761932_at) / RFU CAPN14 (11732068_a_at) / Fold change /veh CAPN14 (11732068_a_at) / RFU TMCC2 (11721928_a_at) / Fold change /veh TMCC2 (11721928_a_at) / RFU IRGQ (11745062_a_at) / Fold change /veh IRGQ (11745062_a_at) / RFU FAM174B (11720279_a_at) / Fold change /veh FAM174B (11720279_a_at) / RFU TMPRSS4 (11748680_a_at) / Fold change /veh TMPRSS4 (11748680_a_at) / RFU FAM212B (11763350_a_at) / Fold change /veh FAM212B (11763350_a_at) / RFU PLEKHG5 (11743358_a_at) / Fold change /veh PLEKHG5 (11743358_a_at) / RFU ZSCAN30 (11745921_a_at) / Fold change /veh ZSCAN30 (11745921_a_at) / RFU CMKLR1 (11741424_a_at) / Fold change /veh CMKLR1 (11741424_a_at) / RFU LOC101060620 /// MAPK8IP1 (11723275_at) / Fold change /veh LOC101060620 /// MAPK8IP1 (11723275_at) / RFU SPTSSB (11747773_x_at) / Fold change /veh SPTSSB (11747773_x_at) / RFU PRSS12 (11739890_at) / Fold change /veh PRSS12 (11739890_at) / RFU BIN1 (11741810_x_at) / Fold change /veh BIN1 (11741810_x_at) / RFU WNT11 (11732464_a_at) / Fold change /veh WNT11 (11732464_a_at) / RFU C10orf10 (11716521_a_at) / Fold change /veh C10orf10 (11716521_a_at) / RFU C5orf56 (11738089_at) / Fold change /veh C5orf56 (11738089_at) / RFU CYB561 (11721691_x_at) / Fold change /veh CYB561 (11721691_x_at) / RFU ANKRD19P (11752326_a_at) / Fold change /veh ANKRD19P (11752326_a_at) / RFU OR2T12 /// OR2T33 /// OR2T8 (11738714_s_at) / Fold change /veh OR2T12 /// OR2T33 /// OR2T8 (11738714_s_at) / RFU VCAN (11748164_a_at) / Fold change /veh VCAN (11748164_a_at) / RFU JSRP1 (11732532_at) / Fold change /veh JSRP1 (11732532_at) / RFU KRTAP10-11 (11738290_x_at) / Fold change /veh KRTAP10-11 (11738290_x_at) / RFU MYO3A (11730013_a_at) / Fold change /veh MYO3A (11730013_a_at) / RFU EBF3 (11725865_a_at) / Fold change /veh EBF3 (11725865_a_at) / RFU CAMK2N1 (11719241_x_at) / Fold change /veh CAMK2N1 (11719241_x_at) / RFU C5orf56 (11738088_a_at) / Fold change /veh C5orf56 (11738088_a_at) / RFU OLFML3 (11715873_a_at) / Fold change /veh OLFML3 (11715873_a_at) / RFU LOC100653217 /// NTM (11731650_a_at) / Fold change /veh LOC100653217 /// NTM (11731650_a_at) / RFU MAPK11 (11762145_a_at) / Fold change /veh MAPK11 (11762145_a_at) / RFU FIZ1 (11724087_x_at) / Fold change /veh FIZ1 (11724087_x_at) / RFU OASL (11726364_x_at) / Fold change /veh OASL (11726364_x_at) / RFU SOX15 (11748057_x_at) / Fold change /veh SOX15 (11748057_x_at) / RFU CD79A (11719716_a_at) / Fold change /veh CD79A (11719716_a_at) / RFU HIST1H1D (11736915_at) / Fold change /veh HIST1H1D (11736915_at) / RFU CASKIN2 (11723855_a_at) / Fold change /veh CASKIN2 (11723855_a_at) / RFU LOC730098 (11760151_x_at) / Fold change /veh LOC730098 (11760151_x_at) / RFU OR4N2 (11742367_at) / Fold change /veh OR4N2 (11742367_at) / RFU PRRT2 (11749266_a_at) / Fold change /veh PRRT2 (11749266_a_at) / RFU SNX32 (11753110_a_at) / Fold change /veh SNX32 (11753110_a_at) / RFU CDHR5 (11726645_a_at) / Fold change /veh CDHR5 (11726645_a_at) / RFU RCAN1 (11760418_a_at) / Fold change /veh RCAN1 (11760418_a_at) / RFU FAM167A (11723789_a_at) / Fold change /veh FAM167A (11723789_a_at) / RFU FAM26E (11764081_at) / Fold change /veh FAM26E (11764081_at) / RFU ISYNA1 (11749810_s_at) / Fold change /veh ISYNA1 (11749810_s_at) / RFU ACY1 (11761880_at) / Fold change /veh ACY1 (11761880_at) / RFU 11764098_at / Fold change /veh 11764098_at / RFU SAMD14 (11745864_x_at) / Fold change /veh SAMD14 (11745864_x_at) / RFU NPB (11741838_a_at) / Fold change /veh NPB (11741838_a_at) / RFU TMPRSS6 (11731388_a_at) / Fold change /veh TMPRSS6 (11731388_a_at) / RFU KRTAP10-2 (11738614_at) / Fold change /veh KRTAP10-2 (11738614_at) / RFU ARHGAP8 /// PRR5-ARHGAP8 (11727945_x_at) / Fold change /veh ARHGAP8 /// PRR5-ARHGAP8 (11727945_x_at) / RFU KRTAP5-7 /// NADSYN1 (11734609_at) / Fold change /veh KRTAP5-7 /// NADSYN1 (11734609_at) / RFU RASL12 (11751679_a_at) / Fold change /veh RASL12 (11751679_a_at) / RFU CDKN2B (11736163_a_at) / Fold change /veh CDKN2B (11736163_a_at) / RFU PRF1 (11729649_at) / Fold change /veh PRF1 (11729649_at) / RFU, ZNF638 /// ZNF638-IT1 / Fold change vs veh, ZNF638 /// ZNF638-IT1 / RFU, PANK3 / Fold change vs veh, PANK3 / RFU, SH3YL1 / Fold change vs veh, SH3YL1 / RFU, ZEB2 / Fold change vs veh, ZEB2 / RFU, NRIP1 / Fold change vs veh, NRIP1 / RFU, PTTG1IP / Fold change vs veh, PTTG1IP / RFU, CAPN2 / Fold change vs veh, CAPN2 / RFU, MED14 / Fold change vs veh, MED14 / RFU, SNORA58 / Fold change vs veh, SNORA58 / RFU, C1orf63 / Fold change vs veh, C1orf63 / RFU, LRRFIP1 / Fold change vs veh, LRRFIP1 / RFU, NDUFAF7 / Fold change vs veh, NDUFAF7 / RFU, SLC12A2 / Fold change vs veh, SLC12A2 / RFU, IBTK / Fold change vs veh, IBTK / RFU, ESF1 / Fold change vs veh, ESF1 / Fold change vs veh, TMEM50B / RFU, TAOK1 / Fold change vs veh, TAOK1 / RFU, ACBD3 / Fold change vs veh, ACBD3 / RFU, TMA16 / Fold change vs veh, TMA16 / RFU, RWDD3 / Fold change vs veh, RWDD3 / RFU, BCAT1 / Fold change vs veh, BCAT1 / RFU, EDEM3 / Fold change vs veh, EDEM3 / RFU, TMEM33 / Fold change vs veh, TMEM33 / RFU, WDR75 / Fold change vs veh, WDR75 / RFU, AHCTF1 / Fold change vs veh, AHCTF1 / RFU, TFRC / Fold change vs veh, TFRC / RFU, ZDHHC17 / Fold change vs veh, ZDHHC17 / RFU, NOM1 / Fold change vs veh, NOM1 / RFU, ARL8B / Fold change vs veh, ARL8B / RFU, ZBTB11 / Fold change vs veh, ZBTB11 / RFU, TAMM41 / Fold change vs veh, TAMM41 / RFU, KIAA1704 /// LOC100996395 / Fold change vs veh, KIAA1704 /// LOC100996395 / RFU, ING1 / Fold change vs veh, ING1 / RFU, TRMT61B / Fold change vs veh, TRMT61B / RFU, FUBP3 / Fold change vs veh, FUBP3 / RFU, TP53 / Fold change vs veh, TP53 / RFU, TNKS2 / Fold change vs veh, TNKS2 / RFU, ZFP14 / Fold change vs veh, ZFP14 / RFU, ACTR2 / Fold change vs veh, ACTR2 / RFU, PPP3R1 / Fold change vs veh, PPP3R1 / RFU, PIK3R1 / Fold change vs veh, PIK3R1 / RFU, HNRNPA1 / Fold change vs veh, HNRNPA1 / RFU, RNF170 / Fold change vs veh, RNF170 / RFU, ZNF28 / Fold change vs veh, ZNF28 / RFU, RNGTT / Fold change vs veh, RNGTT / RFU, OGT / Fold change vs veh, OGT / RFU, BRD1 / Fold change vs veh, BRD1 / RFU, MARS / Fold change vs veh, MARS / RFU, ZNF655 / Fold change vs veh, ZNF655 / RFU, FAHD1 / Fold change vs veh, FAHD1 / RFU, BDP1 / Fold change vs veh, BDP1 / RFU, LRRCC1 / Fold change vs veh, LRRCC1 / RFU, ARID1A / Fold change vs veh, ARID1A / RFU, ZNF146 / Fold change vs veh, ZNF146 / RFU, ZNF330 / Fold change vs veh, ZNF330 / RFU, GPN3 / Fold change vs veh, GPN3 / RFU, C9orf123 / Fold change vs veh, C9orf123 / RFU, N4BP2L2 / Fold change vs veh, N4BP2L2 / RFU, ARFIP1 / Fold change vs veh, ARFIP1 / RFU, FAM179B / Fold change vs veh, FAM179B / RFU, BCL10 / Fold change vs veh, BCL10 / RFU, UHRF1BP1L / Fold change vs veh, UHRF1BP1L / RFU, BET1 / Fold change vs veh, BET1 / RFU, CNOT2 / Fold change vs veh, CNOT2 / RFU, ZNF268 / Fold change vs veh, ZNF268 / Fold change vs veh, ZNF507 / RFU, DGCR2 / Fold change vs veh, DGCR2 / RFU, WDSUB1 / Fold change vs veh, WDSUB1 / Fold change vs veh, HSP90B1 /// MIR3652 / RFU, ADSS / Fold change vs veh, ADSS / RFU, GK / Fold change vs veh, GK / RFU, ZNF148 / Fold change vs veh, ZNF148 / RFU, TAF9 / Fold change vs veh, TAF9 / RFU, SLC1A5 / Fold change vs veh, SLC1A5 / RFU, SLMO2 / Fold change vs veh, SLMO2 / RFU, ABCC4 / Fold change vs veh, ABCC4 / RFU, LOC101060439 /// RAP1B / Fold change vs veh, LOC101060439 /// RAP1B / RFU, RFX7 / Fold change vs veh, RFX7 / RFU, GTPBP10 / Fold change vs veh, GTPBP10 / RFU, CNEP1R1 / Fold change vs veh, CNEP1R1 / RFU, BIVM-ERCC5 /// ERCC5 / Fold change vs veh, BIVM-ERCC5 /// ERCC5 / RFU, ILF3 / Fold change vs veh, ILF3 / RFU 11762660_at / Fold change /veh 11762660_at / RFU VCAN (11757783_s_at) / Fold change /veh VCAN (11757783_s_at) / RFU DDX43 (11728927_at) / Fold change /veh DDX43 (11728927_at) / RFU KRT8 (11758188_x_at) / Fold change /veh KRT8 (11758188_x_at) / RFU NKD1 (11759106_at) / Fold change /veh NKD1 (11759106_at) / RFU SRD5A1 (11742802_a_at) / Fold change /veh SRD5A1 (11742802_a_at) / RFU TPSAB1 /// TPSB2 (11721975_s_at) / Fold change /veh TPSAB1 /// TPSB2 (11721975_s_at) / RFU GSTM3 (11746129_a_at) / Fold change /veh GSTM3 (11746129_a_at) / RFU IL23R (11737362_x_at) / Fold change /veh IL23R (11737362_x_at) / RFU TMEM51 (11727254_a_at) / Fold change /veh TMEM51 (11727254_a_at) / RFU PIWIL2 (11732686_x_at) / Fold change /veh PIWIL2 (11732686_x_at) / RFU ORM1 (11744905_x_at) / Fold change /veh ORM1 (11744905_x_at) / RFU CCDC152 (11743942_at) / Fold change /veh CCDC152 (11743942_at) / RFU ECM1 (11717891_a_at) / Fold change /veh ECM1 (11717891_a_at) / RFU IL23R (11748794_a_at) / Fold change /veh IL23R (11748794_a_at) / RFU TNFAIP8L3 (11732012_x_at) / Fold change /veh TNFAIP8L3 (11732012_x_at) / RFU MBOAT4 (11741988_at) / Fold change /veh MBOAT4 (11741988_at) / RFU 11764193_at / Fold change /veh 11764193_at / RFU TMEM53 (11763286_at) / Fold change /veh TMEM53 (11763286_at) / RFU MAGEB2 (11727129_at) / Fold change /veh MAGEB2 (11727129_at) / RFU TMEM200A (11744735_a_at) / Fold change /veh TMEM200A (11744735_a_at) / RFU CCDC152 (11751479_a_at) / Fold change /veh CCDC152 (11751479_a_at) / RFU FAM211A (11726209_a_at) / Fold change /veh FAM211A (11726209_a_at) / RFU RGS16 (11746705_a_at) / Fold change /veh RGS16 (11746705_a_at) / RFU VCAN (11755009_s_at) / Fold change /veh VCAN (11755009_s_at) / RFU RHOB (11743442_s_at) / Fold change /veh RHOB (11743442_s_at) / RFU RGS16 (11720943_a_at) / Fold change /veh RGS16 (11720943_a_at) / RFU RGS16 (11720944_at) / Fold change /veh RGS16 (11720944_at) / RFU, VPS4B / Fold change vs veh, VPS4B / RFU, CREB1 / Fold change vs veh, CREB1 / RFU, DNAJC13 / Fold change vs veh, DNAJC13 / RFU, GNAQ / Fold change vs veh, GNAQ / RFU, CDK5R1 / Fold change vs veh, CDK5R1 / RFU, ZRANB3 / Fold change vs veh, ZRANB3 / RFU, CUL4A / Fold change vs veh, CUL4A / RFU, CCNY / Fold change vs veh, CCNY / RFU, UFL1 / Fold change vs veh, UFL1 / RFU, COG3 / Fold change vs veh, COG3 / RFU, DIAPH2 / Fold change vs veh, DIAPH2 / RFU, SKA2 / Fold change vs veh, SKA2 / RFU, AFF3 / Fold change vs veh, AFF3 / RFU, LMF1 / Fold change vs veh, LMF1 / RFU, IPO11 / Fold change vs veh, IPO11 / RFU, DFFB / Fold change vs veh, DFFB / RFU, FOXP1 / Fold change vs veh, FOXP1 / RFU, CARD8 / Fold change vs veh, CARD8 / RFU, STRN3 / Fold change vs veh, STRN3 / RFU, ADK / Fold change vs veh, ADK / RFU, RASSF2 / Fold change vs veh, RASSF2 / RFU, WIPF1 / Fold change vs veh, WIPF1 / RFU, LARP1B / Fold change vs veh, LARP1B / RFU, RASA1 / Fold change vs veh, RASA1 / RFU, RB1 / Fold change vs veh, RB1 / RFU, PPFIA1 / Fold change vs veh, PPFIA1 / RFU, MAT2A / Fold change vs veh, MAT2A / RFU, CCT5 / Fold change vs veh, CCT5 / RFU, WDR92 / Fold change vs veh, WDR92 / RFU, CUX1 / Fold change vs veh, CUX1 / RFU, TTC7A / Fold change vs veh, TTC7A / RFU, TMEM135 / Fold change vs veh, TMEM135 / RFU, DEPTOR / Fold change vs veh, DEPTOR / RFU, CPM / Fold change vs veh, CPM / RFU, DNAJB6 / Fold change vs veh, DNAJB6 / RFU, CACNA2D3 / Fold change vs veh, CACNA2D3 / RFU, DTX4 / Fold change vs veh, DTX4 / RFU, TFCP2 / Fold change vs veh, TFCP2 / RFU, GMCL1 /// GMCL1P1 / Fold change vs veh, GMCL1 /// GMCL1P1 / RFU, AEBP2 / Fold change vs veh, AEBP2 / RFU, SNHG1 /// SNORD22 /// SNORD25 /// SNORD26 /// SNORD27 /// SNORD28 /// SNORD29 /// SNORD31 / Fold change vs veh, SNHG1 /// SNORD22 /// SNORD25 /// SNORD26 /// SNORD27 /// SNORD28 /// SNORD29 /// SNORD31 / Fold change (Aza/veh), C12orf56 (ProbeSet 11735607_a_at) / Fold change (ACY-1035/veh), C12orf56 (ProbeSet 11735607_a_at) / Fold change (Aza/veh), FGFR1OP (ProbeSet 11751329_s_at) / Fold change (ACY-1035/veh), FGFR1OP (ProbeSet 11751329_s_at) / Fold change (Aza/veh), VPS36 (ProbeSet 11739960_a_at) / Fold change (ACY-1035/veh), VPS36 (ProbeSet 11739960_a_at) / RFU SYPL1 (11715823_x_at) / Fold change /veh SYPL1 (11715823_x_at) / RFU IGFBP7 (11715501_s_at) / Fold change /veh IGFBP7 (11715501_s_at) / RFU REEP3 (11722064_at) / Fold change /veh REEP3 (11722064_at) / RFU IGLL1 (11728026_x_at) / Fold change /veh IGLL1 (11728026_x_at): dose or concentration left out as unconfirmed. The note with it: MV-4-11 cells, 48 hours.

Molecules are shown by their SMILES.

As to `Nc1ncn([C@@H]2O[C@H](CO)[C@@H](O)[C@H]2O)c(=O)n1` [azacitidine], the “Fold change /veh GAP43 (11754022_s_at)” value was 0.84.

The values above are taken from PMC5218480 (PLoS ONE, 2017).
